Values after ≈ are worked out from the molar mass of the structure shown. Read-outs that look alike come from different tables or passages of the source.
What was measured:
AECO001 (ATCC25922) = assay: MIC broth microdilution, AECO001; type: cell-based, E. coli; details: for MIC: Escherichia coli; for Ratio of MICs on AECO001 [Cpd (A = —CHCH3NH2)/Cpd (A = —C(CH3)2NH2)]: MIC of paired compound with A = —CHCH3NH2 divided by MIC of compound with A = —C(CH3)2NH2, n=2 data, pairs identical except for the A moiety
Procedure: (§1) Bacterial isolates were cultivated from −70° C. frozen stocks by overnight passages at 35° C. in ambient air on Mueller-Hinton agar (Beckton Dickinson, Franklin Lakes, N.J.). Clinical isolates tested were obtained from various geographically diverse hospitals in the US and abroad (Focus Diagnostics, Herndon, Va. and JMI, North Liberty, Iowa). Quality control strains were from the American Type Culture Collection (ATCC; Rockville, Md.). Additional primary panel strains were generated using standard molecular biology techniques.
(§2) Minimum Inhibitory Concentrations (MICs) were determined by the broth microdilution method in accordance with the Clinical and Laboratory Standards Institute (CLSI) guidelines. In brief, organism suspensions were adjusted to a 0.5 McFarland standard to yield a final inoculum between 3×10^5 and 7×10^5 colony-forming units (CFU)/mL. Drug dilutions and inocula were made in sterile, cation adjusted Mueller-Hinton Broth (Beckton Dickinson). An inoculum volume of 100 μL was added to wells containing 100 μL of broth with 2-fold serial dilutions of drug. All inoculated microdilution trays were incubated in ambient air at 35° C. for 18-24 hours. […] Performance of the assay was monitored by the use of laboratory quality-control strains and levofloxacin, a compound with a defined MIC spectrum, in accordance with CLSI guidelines.
(§3) *AECO001 is ATCC25922, AECO063 is ATCC25922 bearing an acrAB mutation, APAE001 is ATCC27853, APAE006 is a strain of P. aeruginosa in which all efflux pumps are inactivated, APAE006+PMBN indicates MICs with the indicated strain in the presence of 8 micrograms per milliliter of polymyxin B nonapeptide, AABA1060 is a clinical isolate of Acinetobacter baumannii, ASAU001 is a laboratory strain of S. aureus (ATCC29213).

APAE001 (ATCC27853) = assay: MIC broth microdilution, APAE001; type: cell-based, P. aeruginosa; details: Pseudomonas aeruginosa
Procedure: as §1, §2, §3

[1] = tested on: APAE006 (strain of P. aeruginosa in which all efflux pumps are inactivated); assay: microbe, parasite or virus in culture; type: cell-based; details: Pseudomonas aeruginosa
Procedure: as §1, §2, §3

[2] = tested on: AABA1060 (clinical isolate of Acinetobacter baumannii); assay: MIC broth microdilution, AABA1060; type: cell-based; details: Acinetobacter baumannii, read-out: MIC AABA1060
Procedure: as §1, §2, §3

[3] = tested on: ASAU001 (laboratory strain of S. aureus, ATCC29213); assay: MIC broth microdilution, ASAU001; type: cell-based; details: Staphylococcus aureus, ATCC29213, read-out: MIC ASAU001
Procedure: as §1, §2, §3

[4] = tested on: AECO063 (ATCC25922 bearing an acrAB mutation); assay: microbe, parasite or virus in culture; type: cell-based, E. coli; details: Escherichia coli, ATCC25922, read-out: MIC AECO063
Procedure: as §1, §2, §3

[5] = tested on: APAE006 in the presence of 8 micrograms per milliliter of polymyxin B nonapeptide; type: cell-based, P. aeruginosa; details: APAE006 with 8 micrograms per milliliter polymyxin B nonapeptide
Procedure: as §1, §2, §3

[6] = ATCC25922, read-out: MIC AECO001
[7] = ATCC25922, read-out: MIC AECO001 HSA AGP
[8] = ATCC27853, read-out: MIC APAE001, APAE001 (ATCC27853)
[9] = read-out: MIC APAE006, APAE006, all efflux pumps inactivated
[10] = ATCC27853, read-out: MIC APAE001, APAE001 is ATCC27853
[11] = read-out: MIC APAE006, P. aeruginosa, all efflux pumps inactivated

SMILES	MIC (AECO001 (ATCC25922); [6])	MIC (AECO001 (ATCC25922); [7])	MIC (APAE001 (ATCC27853); [8])	MIC [1, 9]	MIC [2]	MIC [3]	Ratio of MICs on AECO001 [Cpd (A = —CHCH3NH2)/Cpd (A = —C(CH3)2NH2)] (AECO001 (ATCC25922))	MIC [4]	MIC APAE006 + PMBN [5]	MIC (APAE001 (ATCC27853); [10])	MIC [1, 11]
C[C@H](NCC(=O)N[C@H](C)[C@H](NC(=O)c1ccc(C#Cc2ccccc2)cc1)C(=O)NO)c1ccccc1 [Example 132-5]	16 to 64 µg/mL (≈ 32.1 to 128 µM)	16 to 64 µg/mL (≈ 32.1 to 128 µM)	16 to 64 µg/mL (≈ 32.1 to 128 µM)	< 2 µg/mL	16 to 64 µg/mL (≈ 32.1 to 128 µM)	16 to 64 µg/mL (≈ 32.1 to 128 µM)	–	–	–	–	–
CC(C)(N)[C@H](NC(=O)c1ccc(C#Cc2ccc(CNC3CC3)cc2)cc1)C(=O)NO [Example 121-1, N—((S)-2-Amino-1-hydroxycarbamoyl-2-methyl-propyl)-4-(4-cyclopropylaminomethyl-phenylethynyl)-benzamide]	< 2 µg/mL	< 2 µg/mL	< 2 µg/mL	< 2 µg/mL	2 to 16 µg/mL (≈ 4.76 to 38 µM)	16 to 64 µg/mL (≈ 38 to 152 µM)	4.0	< 2 µg/mL	A (MIC's of 2.0 μg/mL or less = A)	–	–
CC(C)(O)[C@H](NC(=O)c1ccc(C#CC#CCC2CCCC2)cc1)C(=O)NO [Example 91-20]	< 2 µg/mL	2 to 16 µg/mL (≈ 5.23 to 41.8 µM)	2 to 16 µg/mL (≈ 5.23 to 41.8 µM)	2 to 16 µg/mL (≈ 5.23 to 41.8 µM)	2 to 16 µg/mL (≈ 5.23 to 41.8 µM)	16 to 64 µg/mL (≈ 41.8 to 167 µM)	–	< 2 µg/mL	A (MIC's of 2.0 μg/mL or less = A)	–	–
CC(C)(N)[C@H](NC(=O)c1ccc(C#CC#CC2CCCC2)cc1)C(=O)NO [Example 91-14]	< 2 µg/mL	2 to 16 µg/mL (≈ 5.44 to 43.5 µM)	< 2 µg/mL	< 2 µg/mL	< 2 µg/mL	2 to 16 µg/mL (≈ 5.44 to 43.5 µM)	3.3	< 2 µg/mL	A (MIC's of 2.0 μg/mL or less = A)	–	–
C[C@@H](N)[C@H](NC(=O)c1ccc(C#CC#Cc2ccc(CNCC(F)F)cc2)cc1)C(=O)NO [Example 86-1, N-((1S,2R)-2-Amino-1-hydroxycarbamoyl-propyl)-4-(4-{4-[(2,2-difluoro-ethylamino)-methyl]-phenyl}-buta-1,3-diynyl)-benzamide]	< 2 µg/mL	2 to 16 µg/mL (≈ 4.4 to 35.2 µM)	< 2 µg/mL	< 2 µg/mL	2 to 16 µg/mL (≈ 4.4 to 35.2 µM)	16 to 64 µg/mL (≈ 35.2 to 141 µM)	–	< 2 µg/mL	A (MIC's of 2.0 μg/mL or less = A)	–	–
CCOCc1ccc(C#Cc2ccc(C(=O)N[C@H](C(=O)NO)C(C)(C)N)cc2)cc1 [Example 126-1, N—((S)-2-Amino-1-hydroxycarbamoyl-2-methyl-propyl)-4-(4-ethoxymethyl-phenylethynyl)-benzamide]	< 2 µg/mL	< 2 µg/mL	< 2 µg/mL	< 2 µg/mL	< 2 µg/mL	16 to 64 µg/mL (≈ 39.1 to 156 µM)	–	< 2 µg/mL	A (MIC's of 2.0 μg/mL or less = A)	–	–
CC(C)C#CC#Cc1ccc(C(=O)N[C@H](C(=O)NO)C(C)(C)N)cc1 [Example 91-15]	< 2 µg/mL	2 to 16 µg/mL (≈ 5.86 to 46.9 µM)	< 2 µg/mL	< 2 µg/mL	< 2 µg/mL	2 to 16 µg/mL (≈ 5.86 to 46.9 µM)	6.5	< 2 µg/mL	A (MIC's of 2.0 μg/mL or less = A)	–	–
C[C@@H](N)[C@H](NC(=O)c1ccc(C#CC#CCC2CC2)cc1)C(=O)NO [Example 91-27]	< 2 µg/mL	2 to 16 µg/mL (≈ 5.89 to 47.1 µM)	< 2 µg/mL	< 2 µg/mL	2 to 16 µg/mL (≈ 5.89 to 47.1 µM)	16 to 64 µg/mL (≈ 47.1 to 189 µM)	–	< 2 µg/mL	–	–	–
O=C(NO)[C@@H]1CCN1S(=O)(=O)c1ccc(C#Cc2ccc(CN3CCOCC3)cc2)cc1 [Example 62-11]	2 to 16 µg/mL (≈ 4.39 to 35.1 µM)	–	–	–	–	> 64 µg/mL	–	–	–	> 64 µg/mL	< 2 µg/mL
CC(C)(O)[C@H](NC(=O)c1ccc(C#CC#Cc2cccs2)cc1)C(=O)NO [Example 88-11]	< 2 µg/mL	< 2 µg/mL	< 2 µg/mL	< 2 µg/mL	< 2 µg/mL	16 to 64 µg/mL (≈ 41.8 to 167 µM)	–	< 2 µg/mL	–	–	–
CC(C)(N)[C@H](NC(=O)c1ccc(C#CC#CCC2CC2)cc1)C(=O)NO [Example 91-26]	< 2 µg/mL	< 2 µg/mL	< 2 µg/mL	< 2 µg/mL	< 2 µg/mL	16 to 64 µg/mL (≈ 45.3 to 181 µM)	–	< 2 µg/mL	–	–	–
CC(C)CC#CC#Cc1ccc(C(=O)N[C@H](C(=O)NO)[C@@H](C)N)cc1 [Example 91-24]	< 2 µg/mL	2 to 16 µg/mL (≈ 5.86 to 46.9 µM)	< 2 µg/mL	< 2 µg/mL	2 to 16 µg/mL (≈ 5.86 to 46.9 µM)	2 to 16 µg/mL (≈ 5.86 to 46.9 µM)	–	< 2 µg/mL	–	–	–
O=C(NO)[C@H](Cc1ccccc1)NS(=O)(=O)c1ccc(C#Cc2ccc(CN3CCOCC3)cc2)cc1 [Example 62-6]	16 to 64 µg/mL (≈ 30.8 to 123 µM)	–	–	–	–	> 64 µg/mL	–	–	–	> 64 µg/mL	2 to 16 µg/mL (≈ 3.85 to 30.8 µM)
O=C(NO)[C@H](COCc1ccccc1)NS(=O)(=O)c1ccc(C#Cc2ccc(CN3CCOCC3)cc2)cc1 [Example 62-5]	2 to 16 µg/mL (≈ 3.64 to 29.1 µM)	–	–	–	–	> 64 µg/mL	–	–	–	> 64 µg/mL	16 to 64 µg/mL (≈ 29.1 to 116 µM)
O=C(NO)[C@@H](Cc1ccccc1)NS(=O)(=O)c1ccc(C#Cc2ccc(CN3CCOCC3)cc2)cc1 [Example 62-4, (R)—N-Hydroxy-2-[4-(4-morpholin-4-ylmethyl-phenylethynyl)-benzenesulfonylamino]-3-phenyl-propionamide]	2 to 16 µg/mL (≈ 3.85 to 30.8 µM)	–	–	–	–	> 64 µg/mL	–	–	–	> 64 µg/mL	2 to 16 µg/mL (≈ 3.85 to 30.8 µM)
CSC[C@H](NS(=O)(=O)c1ccc(C#Cc2ccc(CN3CCOCC3)cc2)cc1)C(=O)NO [Example 62-9]	16 to 64 µg/mL (≈ 32.7 to 131 µM)	–	–	–	–	> 64 µg/mL	–	–	–	> 64 µg/mL	2 to 16 µg/mL (≈ 4.08 to 32.7 µM)
O=C(NO)[C@@H]1CCCN1S(=O)(=O)c1ccc(C#Cc2ccc(CN3CCOCC3)cc2)cc1 [Example 62-10]	2 to 16 µg/mL (≈ 4.26 to 34.1 µM)	–	–	–	–	> 64 µg/mL	–	–	–	> 64 µg/mL	< 2 µg/mL
CC(C)(N)[C@H](NC(=O)c1ccc(C#CC#Cc2ccccc2F)cc1)C(=O)NO [Example 82-29]	< 2 µg/mL	< 2 µg/mL	< 2 µg/mL	< 2 µg/mL	< 2 µg/mL	2 to 16 µg/mL (≈ 5.08 to 40.7 µM)	–	–	–	–	–
O=C(NO)C1(NS(=O)(=O)c2ccc(C#Cc3ccc(CN4CCOCC4)cc3)cc2)CCCC1 [Example 62-8]	16 to 64 µg/mL (≈ 33.1 to 132 µM)	–	–	–	–	> 64 µg/mL	–	–	–	> 64 µg/mL	16 to 64 µg/mL (≈ 33.1 to 132 µM)

From patent publication US9617256B2 (priority 2007, dated 2017)
